# Reference: ChEMBL document CHEMBL1201862, “PubChem BioAssay data set” (2004)
# The source made the active and inactive calls.
# Key:
# [1] = Trypanosoma cruzi growth suppression in host cells – NIH3T3 host cells, beta-gal luminescence, confirmation (AID 2044); type: functional, cell-based;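 further: intracellular parasites grown in NIH/3T3 mouse fibroblasts as host cells; luminescent beta-galactosidase reporter signal from transgenic T. cruzi replicating inside host cells; inhibitors lower the luminescence signal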
# [2] = target: T1, NAD-dependent protein deacylase sirtuin-5, mitochondrial (Homo sapiens, UniProt Q9NXA8); assay: sirtuin-5 deacylation blockers, concentration series – biochemical, fluorescence imaging, cherry-pick, set 5, dose response (AID 720591);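 further: desuccinylation of succinyl peptide AMC substrate read as fluorescence after trypsin release; potency of inhibitors that lower fluorescence and may act on trypsin instead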
# [3] = NIH3T3 cell viability loss – ATP luminescence, mouse fibroblasts, counter-screen, dose response (AID 2010); type: functional, cell-based;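 further: cells exposed to compound for about 90 hours before reading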
# [4] = target: Kallikrein-7 (Homo sapiens, UniProt P49862); assay: Fluorescence Intensity-based biochemical primary high throughput dose response assay to identify activators of kallikrein-7 (K7) zymogen.
# [5] = target: RNA-editing ligase 1, mitochondrial (Trypanosoma brucei brucei, UniProt P86926); assay: inhibition of trypanosome RNA editing ligase – biochemical, fluorescence, Trypanosoma brucei, dose response (AID 1117295); type: functional
# [6] = viability loss of HPDE-C7K cells – cell-based, fluorescence, HTS, primary screen (AID 431); type: functional; details: Homo sapiens
# [7] = IC50 of Artemis nuclease activity blockers – biochemical, fluorescence intensity, dose response (AID 720701); type: functional;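 further: Artemis endonuclease enzyme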
# [8] = HPDE-C7 pancreatic duct cell viability loss – fluorescence, HTS (AID 430); type: functional, cell-based; details: Homo sapiens
# [9] = target: T2, Histone-lysine N-methyltransferase NSD2 (Homo sapiens, UniProt O96028); type: biochemical
# T2 sequence (O96028 whole entry): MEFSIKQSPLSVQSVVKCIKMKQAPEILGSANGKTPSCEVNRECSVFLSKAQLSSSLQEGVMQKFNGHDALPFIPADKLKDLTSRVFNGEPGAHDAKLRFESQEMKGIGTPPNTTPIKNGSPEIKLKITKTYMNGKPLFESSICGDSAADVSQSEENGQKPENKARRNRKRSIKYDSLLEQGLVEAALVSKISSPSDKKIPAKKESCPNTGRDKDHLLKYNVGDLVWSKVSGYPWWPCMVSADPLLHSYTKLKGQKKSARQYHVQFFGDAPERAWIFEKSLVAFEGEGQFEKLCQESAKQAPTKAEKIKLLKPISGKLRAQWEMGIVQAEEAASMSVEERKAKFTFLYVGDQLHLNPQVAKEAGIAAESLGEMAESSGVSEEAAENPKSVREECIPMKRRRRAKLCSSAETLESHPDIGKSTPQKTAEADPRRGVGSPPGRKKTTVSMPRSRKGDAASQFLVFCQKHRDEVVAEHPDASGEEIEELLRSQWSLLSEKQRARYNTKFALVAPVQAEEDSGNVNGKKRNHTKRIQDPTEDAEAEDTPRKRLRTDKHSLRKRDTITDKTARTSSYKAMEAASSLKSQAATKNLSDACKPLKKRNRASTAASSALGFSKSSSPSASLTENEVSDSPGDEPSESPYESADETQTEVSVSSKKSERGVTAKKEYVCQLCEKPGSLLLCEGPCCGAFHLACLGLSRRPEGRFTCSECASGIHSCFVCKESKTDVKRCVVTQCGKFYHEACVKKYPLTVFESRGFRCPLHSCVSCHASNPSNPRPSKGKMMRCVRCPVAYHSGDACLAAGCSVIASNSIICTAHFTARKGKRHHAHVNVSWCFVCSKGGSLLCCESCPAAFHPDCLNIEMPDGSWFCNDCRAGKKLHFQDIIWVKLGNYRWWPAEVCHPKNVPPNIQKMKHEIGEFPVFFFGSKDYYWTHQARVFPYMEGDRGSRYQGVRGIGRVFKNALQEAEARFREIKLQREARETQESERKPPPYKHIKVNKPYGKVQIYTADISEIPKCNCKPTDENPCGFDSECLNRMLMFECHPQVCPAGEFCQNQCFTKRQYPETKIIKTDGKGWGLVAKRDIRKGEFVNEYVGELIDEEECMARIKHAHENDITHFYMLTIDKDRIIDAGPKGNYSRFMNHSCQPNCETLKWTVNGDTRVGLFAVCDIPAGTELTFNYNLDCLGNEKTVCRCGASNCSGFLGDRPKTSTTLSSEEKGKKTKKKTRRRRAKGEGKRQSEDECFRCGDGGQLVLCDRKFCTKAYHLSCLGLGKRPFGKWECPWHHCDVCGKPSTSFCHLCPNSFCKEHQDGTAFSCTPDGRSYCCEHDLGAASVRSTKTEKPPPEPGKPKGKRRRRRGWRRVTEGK
# [10] = target: Caspase-6 (Homo sapiens, UniProt P55212); assay: inhibition of CASP6 peptide cleavage – biochemical, VEID-R110 fluorescence, cherry-pick, dose response (AID 720632)
# [11] = target: Caspase-7 (Homo sapiens, UniProt P55210); assay: caspase-7 enzyme inhibition, selectivity check – biochemical, DEVD-R110 fluorescence, cherry-pick, selectivity assay for caspase-6 inhibitor project, dose response (AID 743295); type: functional
# [12] = target: T3, DNA repair protein RAD52 homolog (Homo sapiens, UniProt P43351); type: functional, biochemical
# T3 sequence (P43351 whole entry): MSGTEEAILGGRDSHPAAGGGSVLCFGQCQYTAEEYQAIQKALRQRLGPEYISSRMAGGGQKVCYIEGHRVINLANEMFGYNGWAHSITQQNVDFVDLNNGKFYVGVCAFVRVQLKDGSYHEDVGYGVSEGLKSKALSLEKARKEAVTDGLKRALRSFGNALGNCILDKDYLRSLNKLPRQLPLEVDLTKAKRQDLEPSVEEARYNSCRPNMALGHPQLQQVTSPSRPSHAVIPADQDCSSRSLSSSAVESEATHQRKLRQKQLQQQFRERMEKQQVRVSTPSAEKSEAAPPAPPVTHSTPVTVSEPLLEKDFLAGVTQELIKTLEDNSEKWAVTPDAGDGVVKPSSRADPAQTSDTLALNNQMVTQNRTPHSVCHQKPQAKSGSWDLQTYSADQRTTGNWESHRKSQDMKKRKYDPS
# [13] = target: T4, Protein skinhead-1 (Caenorhabditis elegans, UniProt P34707); type: functional
# T4 sequence (P34707 whole entry): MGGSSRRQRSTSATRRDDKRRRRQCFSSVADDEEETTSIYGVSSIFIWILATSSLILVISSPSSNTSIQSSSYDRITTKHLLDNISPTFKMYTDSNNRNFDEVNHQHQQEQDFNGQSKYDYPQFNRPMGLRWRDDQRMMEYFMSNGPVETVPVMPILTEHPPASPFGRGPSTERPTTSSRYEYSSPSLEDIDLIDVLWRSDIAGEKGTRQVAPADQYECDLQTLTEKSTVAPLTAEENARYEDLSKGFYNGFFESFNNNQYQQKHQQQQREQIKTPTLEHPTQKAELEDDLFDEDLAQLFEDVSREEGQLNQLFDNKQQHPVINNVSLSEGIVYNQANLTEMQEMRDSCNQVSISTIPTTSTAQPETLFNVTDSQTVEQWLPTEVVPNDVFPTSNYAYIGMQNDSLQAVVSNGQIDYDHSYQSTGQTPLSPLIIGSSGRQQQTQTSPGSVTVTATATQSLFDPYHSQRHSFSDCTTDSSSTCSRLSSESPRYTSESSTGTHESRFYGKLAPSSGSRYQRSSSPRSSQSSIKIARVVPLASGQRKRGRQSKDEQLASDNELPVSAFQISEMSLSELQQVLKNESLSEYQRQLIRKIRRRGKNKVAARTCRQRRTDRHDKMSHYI
# [14] = Potency on glucagon-like peptide 1 release, dose-response in NCI-H716 cell line, half maximal inhibitory concentration (AID 1117344); type: functional, cell-based
# [15] = glucagon-like peptide-1 release potency in STC-1, concentration-response, half-maximal inhibitory concentration in the STC-1 line (AID 1117345); type: functional, cell-based
# [16] = IC50 of insulin release inhibition, rat insulinoma INS-1E line, 5 mM glucose, cell-based (AID 1117331); type: functional
# [17] = cytotoxicity in MITF-independent A375 cells – cell-based, CellTiter-Glo luminescence, dry powder, set 4, counter-screen for MITF inhibitor project, dose response (AID 624364); type: functional; details: A-375;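 further: A375 melanoma cells are MITF independent so this is a counter screen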
# [18] = inhibitors of TRPM1-promoter reporter in SK-MEL-5 – cell-based, luciferase, dry powder, set 9, MITF inhibitor project, dose response (AID 651588); type: functional
# [19] = MITF Measured in Cell-Based System Using Plate Reader - 2084-01_Inhibitor_Dose_DryPowder_Activity_Set6.; type: functional
# [20] = MITF Measured in Cell-Based System Using Plate Reader - 2084-01_Inhibitor_Dose_DryPowder_Activity_Set7.; type: functional
# [21] = MITF Orthogonal Assay: SK-MEL-5 CTG Assay Measured in Cell-Based System Using Plate Reader - 2084-02_Inhibitor_Dose_DryPowder_Activity_Set5.; type: functional
# [22] = growth inhibition of SK-MEL-5 melanoma cells – cell-based, CellTiter-Glo luminescence, dry powder, set 8, orthogonal assay for MITF inhibitor project, dose response (AID 651586); type: functional
# [23] = target: Paired box protein Pax-8 (Homo sapiens, UniProt Q06710); assay: PAX8 transcriptional activity inhibition in RMG-I – RMG-I cells, luciferase, cherry-pick, dose response (AID 687027); type: functional, cell-based;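 further: luciferase reporter driven by Pax8 target thyroperoxidase promoter measured by SteadyGlo luminescence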
# [24] = OVCAR8 cell viability loss – plate reader, dry powder samples, PAX8 project, dose response (AID 743197); type: functional, cell-based; details: OVCAR-8
# [25] = A2780 cell killing – plate reader, dry powder samples, cytotoxicity control, dose response (AID 743046); type: functional, cell-based
# [26] = OVCAR-3 cell viability loss – plate reader, dry powder samples, PAX8 inhibitor project, dose response (AID 743044); type: functional, cell-based
# [27] = IGROV1 cell killing – plate reader, dry powder samples, PAX8 inhibitor project, dose response (AID 743043); type: functional, cell-based; details: IGROV-1
# [28] = general cell-killing toxicity readout – plate reader, dry powder samples, cytotoxicity control for PAX8 inhibitor project, dose response (AID 743021); type: functional, cell-based
# [29] = antimalarial activity against Dd2 parasites – SYBR Green fluorescence, erythrocytes, dry powder, set 2, dose response (AID 1159574); type: functional, cell-based
# [30] = P. falciparum Dd2 growth inhibitors, dose response, SYBR Green, cherry-picked samples (AID 1159567); type: functional, cell-based
# [31] = toxicity to human hepatoma HepG2 cells – cell-based, cherry-picked samples, cytotoxicity control, dose response (AID 1159577); type: functional
# [32] = Dd2 malaria parasite growth inhibition potency – SYBR Green, dry powder samples, dose response (AID 1159566); type: functional, cell-based;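 further: potency for growth inhibition with lower SYBR green DNA signal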
# [33] = growth inhibition of PfATP4-mutant resistant parasites – NITD609-resistant line, SYBR Green, dry powder, dose response (AID 1159571); type: functional, cell-based;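 further: parasites synchronized at ring stage by sorbitol before testing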
# [34] = growth inhibition of yeast DHODH-expressing 3D7 parasites – SYBR Green, dry powder samples, dose response (AID 1159570); type: functional, cell-based;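 further: parasite growth measured after 72 hours of compound exposure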
# [35] = toxicity to human HepG2 hepatoma cells – cell-based, plate reader, dry powder samples, cytotoxicity control, dose response (AID 1159569); type: functional;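 further: inhibitor potency with signal falling toward the positive control level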
# [36] = Late stage results for the probe development effort to identify inhibitors of Plasmodium falciparum gametocytes: Luminescence-based cell-based high throughput dose response assay to identify inhibitors of viability of late stage Plasmodium falciparum gametocytes.; type: functional
# [37] = Late stage assay provider results from the probe development effort to identify inhibitors of the Plasmodium falciparum M18 Aspartyl Aminopeptidase (M18AAP): radiolabel-based cell-based dose response assay to identify compounds that inhibit P. falciparum growth in RBCs, Set 2..; type: functional
# [38] = viability loss in HepG2 liver cells – cell-based, ATP luminescence, cherry-pick, set 6, cytotoxicity control, dose response (AID 1053125); type: functional
# [39] = target: T1, NAD-dependent protein deacylase sirtuin-5, mitochondrial; assay: blockers of sirtuin-5 peptide desuccinylation – biochemical, fluorescence imaging, cherry-pick, set 6, dose response (AID 720597)
# T1 sequence (Q9NXA8 whole entry): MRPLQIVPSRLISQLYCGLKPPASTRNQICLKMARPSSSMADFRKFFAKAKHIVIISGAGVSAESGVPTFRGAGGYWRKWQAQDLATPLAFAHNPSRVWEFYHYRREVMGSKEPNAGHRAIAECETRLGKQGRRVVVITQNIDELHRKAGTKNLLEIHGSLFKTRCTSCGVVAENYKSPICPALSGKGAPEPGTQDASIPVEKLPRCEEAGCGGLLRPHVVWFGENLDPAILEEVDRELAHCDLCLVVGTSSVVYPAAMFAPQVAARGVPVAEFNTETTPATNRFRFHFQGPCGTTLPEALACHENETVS
# Caspase-6, sequence (P55212 24-179 limits assumed): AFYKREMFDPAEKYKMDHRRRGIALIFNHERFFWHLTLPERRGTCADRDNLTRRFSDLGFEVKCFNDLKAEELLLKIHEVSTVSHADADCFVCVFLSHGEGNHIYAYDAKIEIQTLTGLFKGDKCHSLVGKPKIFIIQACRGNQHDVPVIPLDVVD
# Caspase-6, sequence (P55212 194-293 limits assumed): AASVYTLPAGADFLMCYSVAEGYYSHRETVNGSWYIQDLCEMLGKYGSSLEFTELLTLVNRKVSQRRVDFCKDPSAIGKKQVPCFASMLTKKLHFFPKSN
# Caspase-7, sequence (P55210 24-198 limits assumed): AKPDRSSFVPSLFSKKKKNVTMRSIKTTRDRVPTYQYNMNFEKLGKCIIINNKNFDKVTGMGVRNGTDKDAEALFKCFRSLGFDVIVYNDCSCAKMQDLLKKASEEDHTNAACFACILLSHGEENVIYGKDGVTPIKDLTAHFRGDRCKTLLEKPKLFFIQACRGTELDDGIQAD
# Caspase-7, sequence (P55210 207-303 limits assumed): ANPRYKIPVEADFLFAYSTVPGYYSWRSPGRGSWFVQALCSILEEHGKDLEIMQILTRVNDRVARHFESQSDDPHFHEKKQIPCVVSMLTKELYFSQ
# Kallikrein-7, sequence (P49862 whole entry): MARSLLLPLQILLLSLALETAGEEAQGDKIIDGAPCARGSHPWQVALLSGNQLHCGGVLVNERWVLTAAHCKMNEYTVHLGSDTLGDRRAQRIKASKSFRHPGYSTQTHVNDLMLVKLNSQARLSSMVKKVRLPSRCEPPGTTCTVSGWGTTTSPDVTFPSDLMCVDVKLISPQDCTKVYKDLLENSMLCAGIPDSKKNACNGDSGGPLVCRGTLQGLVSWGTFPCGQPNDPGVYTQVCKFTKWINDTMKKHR
# Paired box protein Pax-8, sequence (Q06710 whole entry): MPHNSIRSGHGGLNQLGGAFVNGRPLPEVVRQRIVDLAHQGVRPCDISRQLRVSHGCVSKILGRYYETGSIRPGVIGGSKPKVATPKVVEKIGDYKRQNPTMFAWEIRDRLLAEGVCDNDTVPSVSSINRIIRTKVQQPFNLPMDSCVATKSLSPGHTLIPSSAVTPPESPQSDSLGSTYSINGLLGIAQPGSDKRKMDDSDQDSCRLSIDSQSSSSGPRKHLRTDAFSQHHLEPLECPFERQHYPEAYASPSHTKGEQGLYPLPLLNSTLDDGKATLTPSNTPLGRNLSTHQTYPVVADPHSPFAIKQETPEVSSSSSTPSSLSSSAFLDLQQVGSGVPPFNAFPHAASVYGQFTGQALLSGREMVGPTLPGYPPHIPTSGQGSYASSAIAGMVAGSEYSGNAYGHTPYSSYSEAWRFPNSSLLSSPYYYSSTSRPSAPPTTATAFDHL
# RNA-editing ligase 1, mitochondrial, sequence (P86926 whole entry): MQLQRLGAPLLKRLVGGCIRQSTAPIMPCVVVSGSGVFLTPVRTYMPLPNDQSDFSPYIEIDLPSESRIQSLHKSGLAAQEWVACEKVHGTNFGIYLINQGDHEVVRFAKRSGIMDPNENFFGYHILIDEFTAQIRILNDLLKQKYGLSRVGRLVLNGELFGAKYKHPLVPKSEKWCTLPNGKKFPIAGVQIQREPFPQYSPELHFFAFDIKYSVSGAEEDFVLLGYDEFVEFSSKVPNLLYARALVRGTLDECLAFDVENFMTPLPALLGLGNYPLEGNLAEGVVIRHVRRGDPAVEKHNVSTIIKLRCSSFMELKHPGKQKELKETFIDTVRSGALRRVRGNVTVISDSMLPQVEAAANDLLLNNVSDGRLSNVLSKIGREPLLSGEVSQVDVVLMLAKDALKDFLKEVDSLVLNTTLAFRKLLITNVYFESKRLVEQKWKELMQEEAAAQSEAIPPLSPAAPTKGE
structure (smiles),measurement,setting,value
CN1CCN(C(=O)COc2ccc(N(C)S(=O)(=O)c3ccc(F)cc3)cc2)CC1,EC50,[1],346 nM (active)
same,AC50,[2],> 30 µM (inactive)
same,EC50,[3],> 60 µM (not active)
Fc1ccc(-c2nc3cnccn3c2NC2CCCC2)cc1,EC50,[4],> 7.72 µM (active)
Nc1c(C(=O)NC2CCCC2)c2nc3ccccc3nc2n1CC1CCCO1 (stereo not given),IC50,[5],21.1 µM (inactive)
same,EC50,[6],13.2 µM (active)
same,IC50,[7],> 20 µM (inactive)
same,EC50,[8],14.4 µM (active)
COc1cc(NCCCCC(C)N)c2nccc(C)c2c1 (stereo not given),AC50,[9],2.52 µM (active)
same,AC50,[10],4.77 µM (active)
same,AC50,[11],24.9 µM (active)
same,AC50,[12],5.43 µM (active)
same,IC50,[13],> 100 µM (inactive)
Cn1cc([S+](C)[O-])c(=O)c2ccc(F)cc21 (stereo not given) [FLOSEQUINAN],IC50,[14],> 40 µM (inactive)
same,IC50,[15],> 40 µM (inactive)
same,IC50,[16],> 33.3 µM (inactive)
NC1=C(NS(=O)(=O)c2ccc(Br)s2)C(=O)c2ccccc2C1=O,AC50,[17],> 70 µM (inactive)
same,AC50,[18],> 70 µM (inactive)
same,AC50,[19],> 70 µM (inactive)
same,AC50,[20],65.8 µM (active)
same,AC50,[21],> 70 µM (inactive)
same,AC50,[22],> 70 µM (inactive)
C[C@H](CO)N1C[C@H](C)[C@H](CN(C)Cc2ccc(C(F)(F)F)cc2)OCCCC[C@H](C)Oc2ccc(NC(=O)Cc3ccccc3)cc2C1=O,AC50,[23],6.42 µM (active)
same,AC50,[24],67 µM (active)
same,AC50,[25],49 µM (active)
same,AC50,[26],35.4 µM (active)
same,AC50,[27],25.6 µM (active)
same,AC50,[28],69.3 µM (active)
COc1cccc(C#Cc2ccc([C@@H]3[C@H](CO)N4C(=O)CN(C(=O)Cc5ccccc5)C[C@@H]34)cc2)c1,AC50,[29],> 20 µM (inactive)
Cc1cccc(S(=O)(=O)N2CCCCN3[C@@H](CO)[C@@H](c4ccc(-c5ccccc5)cc4)[C@@H]3C2)c1,AC50,[30],1.26 µM (active)
same,AC50,[31],19.8 µM (active)
C[C@@H]1CN([C@H](C)CO)S(=O)(=O)c2ccc(-c3ccncc3)cc2O[C@H]1CN(C)Cc1ccc(Oc2ccccc2)cc1,AC50,[30],1.51 µM (active)
same,AC50,[32],583 nM (active)
same,AC50,[33],841 nM (active)
same,AC50,[34],573 nM (active)
same,AC50,[35],50 µM (active)
Cc1ccc(-c2nn(-c3ccccc3)cc2C(=O)Nc2nccs2)cc1,IC50,[36],> 74.4 µM (inactive)
COc1ccc(CCN(C)c2c3ccccc3nc3ccccc23)cc1OC,IC50,[37],4.5 µM (active)
CCOc1ccc2nc(NCCCNS(=O)(=O)c3ccc(F)cc3)c(C#N)cc2c1,AC50,[38],> 52 µM (inactive)
COCC(=O)Nc1ccc2c(c1)OC[C@@H](C)N(CCc1ccccc1)C[C@@H](C)[C@H](OC)CN(C)C2=O,AC50,[39],> 30 µM (inactive)
